The text below walks through data of patent US7737177B2, “Processes for preparing crystalline and amorphous mupirocin calcium” (priority 2001, dated 2010).

Where two headings read alike, the source gives them in different places. A value given as a limit tells only on which side of the number the result lay.

The conditions of data set [1]: cited from earlier work; for Purity after storage: expressed as a percentage of pure free pseudomonic acid.
Data set [2] can be described thus: thermal stability on storage (HPLC assay, Karl Fischer water, HPLC impurities). The class given is physicochemical. Also noted: Total Impurity: unit not given here. As to the method: As used herein, the term “assay” refers to a determination of purity/presence of a quantity of a substance as described by the European Pharmacopoeia (“EP”). EUROPEAN PHARMACOPOEIA, Fourth Edition, pp 1602-1604, Council of Europe, Strasbourg, 2001. The assay is done with high pressure liquid chromatography (“HPLC”).
As used herein, the term “total impurity” refers to the sum of all areas under the peaks of impurities as described by the European Pharmacopoeia. It is determined by another HPLC method and is different than the assay.
The present invention provides for amorphous mupirocin calcium with high thermal stability. Thermal stability is defined as the ability to resist chemical degradation during storage, especially in light of the conditions during storage. The higher purity and […] of amorphous mupirocin calcium makes it less susceptible to chemical degradation during storage.
Glass ampoule in Aluminum laminate bag with silica gel was used as the packing system.
Relative humidity was exactly 60%.
The water content was measured by the Karl Fischer method.
High pressure liquid chromatography (HPLC) was performed on a Zorbax® C-8 (5 um; 250×4.6 mm), reverse phase column with ammonium acetate buffer solution in water: tetrahydrofuran mixture as eluent. Detected by U.V. spectroscopy at λ=240 nm.
The assay also used the same HPLC instruments.

For data set [3] the following is noted: Baker et al., Column 1, Lines 31-33; cited from earlier work.
The nature of data set [4]: thermal stability reported by Baker et al. (purity after storage). Type of data set: physicochemical. From the text: The Baker et al. patents disclose preparing amorphous form of mupirocin calcium by crystallization from an aqueous solution consisting of 50% methanol followed by trituration with dry ether.
Baker et al. expresses its assay in relation to psuedomonic acid. The assay of the present invention is expressed differently, as illustrated by Table-1.
In connection with amorphous mupirocin calcium, the assay of the present invention can be converted into the assay expressed as in Baker et al. by multiplying with a factor of 0.9637. This 89.9% assay of Baker et al. corresponds to a 93.29% assay as calculated by the method of the present invention.
In connection with mupirocin calcium dihydrate, the 92.1% assay of Baker et al. corresponds to a 98.88% assay as expressed by the present invention.

For data set [5] the following is noted: according to the maker of Bactroban, cited from earlier work.
Setting [6] is: 1 Kg batch, 0 months at 2–8° C.
Setting [7] is: 1 Kg batch, 0.5 months at 2–8° C.
[8] abbreviates: 1 Kg batch, 0.5 months at 25° C.
Setting [9] is: 1 Kg batch, 1.0 months at 2–8° C.
Where [10] appears, read: 1 Kg batch, 2.0 months at 2–8° C.
Setting [11] is: 187.2 grams batch, 2° C.-8° C. 60% RH, 0 month.
Where [12] appears, read: 187.2 grams batch, 2° C.-8° C. 60% RH, 1 month.
The mark [13] stands for this setting: 187.2 grams batch, 2° C.-8° C. 60% RH, 2 months.
The mark [14] stands for this setting: 187.2 grams batch, 2° C.-8° C. 60% RH, 3 months.
[15] abbreviates: 187.2 grams batch, 25° C./60% RH, 0 month.
Setting [16] is: 187.2 grams batch, 25° C./60% RH, 1 month.
[17] abbreviates: 187.2 grams batch, 25° C./60% RH, 2 months.
Setting [18] is: 187.2 grams batch, 25° C./60% RH, 3 months.

Consider `C/C(=C\C(=O)OCCCCCCCCC(=O)[O-])C[C@@H]1OC[C@H](C[C@@H]2O[C@H]2[C@@H](C)[C@H](C)O)[C@@H](O)[C@H]1O.C/C(=C\C(=O)OCCCCCCCCC(=O)[O-])C[C@@H]1OC[C@H](C[C@@H]2O[C@H]2[C@@H](C)[C@H](C)O)[C@@H](O)[C@H]1O.O.O.[Ca+2]` [Anhydrous amorphous mupirocin calcium, mupirocin calcium], for which the Purity after storage is 87.83% in data set [1] (2 weeks, 37° C.); 72.0% in data set [1] (2 weeks, 50° C.); 12.58% in data set [1] (2 weeks, 80° C.); 26.07% in data set [1] (8 days, 80° C.); 74.88% in data set [1] (10 days, 50° C.); 91.14% in data set [4] (2 weeks, 37° C., expressed as a percentage of mupirocin calcium anhydrous). Moreover, the Purity after storage stood at 74.71% in data set [4] (2 weeks, 50° C., expressed as a percentage of mupirocin calcium anhydrous); 13.05% in data set [4] (2 weeks, 80° C., expressed as a percentage of mupirocin calcium anhydrous); 27.05% in data set [4] (8 days, 80° C., expressed as a percentage of mupirocin calcium anhydrous); 77.70% in data set [4] (10 days, 50° C., expressed as a percentage of mupirocin calcium anhydrous). For the same molecule, the thermal stability result in data set [1] (Baker et al., Column 1, Lines 31-33) is listed as “poor thermal stability”. The “deterioration at high temperatures” value in data set [1] (chart in Columns 8 and 9 of the '093 patent) is listed as “rapid deterioration at high temperatures”. Also, in data set [2] (after storage for one month), the “level of impurity MUP II (impurity E in the EP)” value is “more than 1%”. For the same molecule, the “total level of impurities (not assay)” value in data set [2] (after two months of storage, FIGS. 9 and 10) is listed as “more than 3.5%”. Besides, the water solubility result in data set [3] is “sparingly water soluble”.
For `C/C(=C\C(=O)OCCCCCCCCC(=O)[O-])C[C@@H]1OC[C@H](C[C@@H]2O[C@H]2[C@@H](C)[C@H](C)O)[C@@H](O)[C@H]1O.C/C(=C\C(=O)OCCCCCCCCC(=O)[O-])C[C@@H]1OC[C@H](C[C@@H]2O[C@H]2[C@@H](C)[C@H](C)O)[C@@H](O)[C@H]1O.O.O.[Ca+2]` [amorphous mupirocin calcium, mupirocin calcium], the Assay is on record as 98.5 in data set [2] (setting [6]); 98.5 in data set [2] (1 Kg batch, 0 months at 25° C.); 95.2 in data set [2] (setting [7]); 97.4 in data set [2] (setting [8]); 98.3 in data set [2] (1 Kg batch, 1 month at 25° C.); 95.5 in data set [2] (setting [9]). The Assay was 96.7 in data set [2] (setting [10]); 96.5 in data set [2] (1 Kg batch, 2 months at 25° C.); “about 96%” in data set [2] (after 2 months of storage at about 25° C. and at about 2-8° C.). The Water in data set [2] (setting [6]) is 1.2; in data set [2] (1 Kg batch, 0 months at 25° C.) it was 1.5; in data set [2] (setting [7]), 1.3; in data set [2] (setting [8]) it was 1.2; in data set [2] (1 Kg batch, 1 month at 25° C.), 1.9; in data set [2] (setting [9]), 1.9. The Water worked out at 1.6 in data set [2] (setting [10]); 1.5 in data set [2] (1 Kg batch, 2 months at 25° C.); 0.6% in data set [2] (setting [11]); 0.8% in data set [2] (setting [12]); 0.7% in data set [2] (setting [13]); 1.1% in data set [2] (setting [14]). Also, the Water in data set [2] (setting [15]) stood at 0.6%; in data set [2] (setting [16]) it was 0.8%; in data set [2] (setting [17]), 0.8%; in data set [2] (setting [18]), 1.0%. Moreover, the “Total Impurity” value came to 2.71 in data set [2] (setting [7]); 2.83 in data set [2] (setting [8]); 3.18 in data set [2] (1 Kg batch, 1 month at 25° C.); 2.88 in data set [2] (setting [9]); 2.86 in data set [2] (setting [10]); 3.21 in data set [2] (1 Kg batch, 2 months at 25° C.). Further, the “Assay (HPLC)” value is on record as 96.0% in data set [2] (setting [11]); 95.6% in data set [2] (setting [12]); 95.3% in data set [2] (setting [13]); 96.1% in data set [2] (setting [14]); 96.0% in data set [2] (setting [15]); 97.5% in data set [2] (setting [16]). The figures for the “Assay (HPLC)” value in data set [2] (setting [17]) and in data set [2] (setting [18]) were 94.1% and 95.9%, respectively. Also, the Description entry in data set [2] (setting [11]) is recorded as “White”; in data set [2] (setting [12]), “White”; in data set [2] (setting [13]) it was “White”; in data set [2] (setting [14]) it was “White”; in data set [2] (setting [15]), “White powder”; in data set [2] (setting [16]), “White”. The Description entry in data set [2] (setting [17]) and in data set [2] (setting [18]) was “White” in each case. Besides, the “Impurities (HPLC) Imp. C” value worked out at 1.31% in data set [2] (setting [11]); 1.32% in data set [2] (setting [13]); 1.35% in data set [2] (setting [14]); 1.31% in data set [2] (setting [15]); 1.34% in data set [2] (setting [17]); 1.37% in data set [2] (setting [18]). The “Impurities (HPLC) MUP II” value in data set [2] (setting [11]) is given as 0.31%; in data set [2] (setting [13]), 0.41%; in data set [2] (setting [14]), 0.42%; in data set [2] (setting [15]), 0.31%; in data set [2] (setting [17]) it was 0.77%; in data set [2] (setting [18]), 0.89%. Also, the “Impurities (HPLC) Total Impurities” value in data set [2] (setting [11]) worked out at 2.22%; in data set [2] (setting [13]), 2.43%; in data set [2] (setting [14]), 2.62%; in data set [2] (setting [15]), 2.22%; in data set [2] (setting [17]), 3.02%; in data set [2] (setting [18]), 3.25%. The total impurity content entry in data set [2] (after 2 months) is “about 3%”. Further, the “total level of impurity (not assay)” value in data set [2] (after at least two months of storage at 25° C.) was “less than 3.5%”. For the same molecule, the “level of impurity MUP II (impurity E in the EP)” value in data set [2] (storage at 25° C. and RH 60% for at least two months) was not above 1%.
Turning to `C/C(=C\C(=O)OCCCCCCCCC(=O)[O-])C[C@@H]1OC[C@H](C[C@@H]2O[C@H]2[C@@H](C)[C@H](C)O)[C@@H](O)[C@H]1O.C/C(=C\C(=O)OCCCCCCCCC(=O)[O-])C[C@@H]1OC[C@H](C[C@@H]2O[C@H]2[C@@H](C)[C@H](C)O)[C@@H](O)[C@H]1O.O.O.[Ca+2]` [mupirocin calcium], the side effects entry in data set [5] (administered intravenously at 250 mg) and in data set [5] (administered orally at 500 mg) was “without any major side effects” in each case.
On to `C/C(=C\C(=O)OCCCCCCCCC(=O)O)C[C@@H]1OC[C@H](C[C@@H]2O[C@H]2[C@@H](C)[C@H](C)O)[C@@H](O)[C@H]1O` [Crystalline mupirocin calcium dihydrate, mupirocin calcium dihydrate], for which the Purity after storage in data set [1] (2 weeks, 37° C., calcium dihydrate) is listed as 92.28%; in data set [1] (2 weeks, 50° C., calcium dihydrate), 90.90%; in data set [1] (2 weeks, 80° C., calcium dihydrate), 86.57%; in data set [1] (8 days, 80° C., calcium dihydrate), 89.33%; in data set [1] (10 days, 50° C., calcium dihydrate), 91.08%; in data set [4] (2 weeks, 37° C., expressed as a percentage of mupirocin calcium dihydrate) it was 99.08%. For the same molecule, the Purity after storage in data set [4] (2 weeks, 50° C., expressed as a percentage of mupirocin calcium dihydrate) is recorded as 97.60%; in data set [4] (2 weeks, 80° C., expressed as a percentage of mupirocin calcium dihydrate) it was 92.95%; in data set [4] (8 days, 80° C., expressed as a percentage of mupirocin calcium dihydrate), 95.91%; in data set [4] (10 days, 50° C., expressed as a percentage of mupirocin calcium dihydrate), 97.79%.
